Source: US10105357B2, “Indication of antibiotic drugs for preparation of cancer inhibition pharmaceutical composition” (LAUNX BIOMEDICAL CO., LTD., priority 2014, dated 2018)
Read-outs that look alike come from different tables or passages of the source.

How the values were obtained:
[1] = system: HI650 (Lung Adenocarcinoma); assay: Cell viability analysis, lung cancer HI650; assay type: cell-based, human; details: for viability at 10 µM: Homo sapiens, NCI-H1650, 72 h
[2] = system: SAS (Tongue squamous cell carcinoma); assay: Cell viability analysis, tongue cancer SAS; assay type: cell-based, human
[3] = system: 786-O (Renal adenocarcinoma); assay: Cell viability analysis, renal cancer 786-O; assay type: cell-based, human
NIH: OVCAR-3 = assay: Cell viability analysis, ovarian cancer NIH: OVCAR-3; assay type: cell-based, human
[4] = system: A375 (Amelanotic Melanoma); assay: Cell viability analysis, skin cancer A375; assay type: cell-based, human; details: for viability at 10 µM: Homo sapiens, A-375, 72 h
[5] = system: HepG2 (Hepatocellular Carcinoma); assay: Cell viability analysis, hepatic cancer HepG2; assay type: cell-based, human; details: for viability at 10 µM: Homo sapiens, HepG2, 72 h
[6] = system: PC3 (p53−) (Prostate Adenocarcinoma); assay: Cell viability analysis, prostate cancer PC3; assay type: cell-based, human; details: for viability at 10 µM: Homo sapiens, 72 h
[7] = system: C-33A (Cervical carcinoma); assay: Cell viability analysis, cervical cancer C-33A; assay type: cell-based, human
[8] = system: TSGH-8301 (Urinary Bladder Carcinoma); assay: Cell viability analysis, bladder cancer TSGH-8301; assay type: cell-based, human; details: for viability at 10 µM: Homo sapiens, 72 h
[9] = system: BCC (basal cell carcinoma); assay: Cell viability analysis, skin cancer BCC; assay type: cell-based, human
[10] = system: AGS (Gastric Adenocarcinoma); assay: Cell viability analysis, gastric cancer AGS; assay type: cell-based, human; details: for viability at 10 µM: Homo sapiens, 72 h
TOV-21G = assay: Cell viability analysis, ovarian cancer TOV-21G; assay type: cell-based, human
AsPC-1 = assay: Cell viability analysis, pancreatic cancer AsPC-1; assay type: cell-based, human
U-2OS = assay: Cell viability analysis, osteosarcoma U-2OS; assay type: cell-based, human
[11] = system: MKN-45 (Gastric Adenocarcinoma); assay: Cell viability analysis, gastric cancer MKN-45; assay type: cell-based, human; details: for viability at 10 µM: Homo sapiens, MKN-45, 72 h
[12] = system: HL-60 (Acute Promyelocytic Leukemia); assay: Cell viability analysis, leukemia HL-60; assay type: cell-based, human; details: Homo sapiens, HL-60, 72 h, read-out: cell viability (survival rate), HL-60, drug 10 μM, 72 hours, WST-1, OD450 nm
[13] = system: HCT116 (p53+) (Colorectal Carcinoma)
[14] = system: MCF7 (Mammary Gland, Adenocarcinoma); assay: Cell viability analysis, breast cancer MCF7; assay type: cell-based, human; details: for viability at 10 µM: Homo sapiens, MCF7, 72 h
BxPC-3 = assay: Cell viability analysis, pancreatic cancer BxPC-3; assay type: cell-based, human
cancer cell lines = assay: Cell viability analysis (WST-1) on cancer cell lines; assay type: cell-based, human; details: drug 10 μM, 72 hours, WST-1; Table 3
[15] = system: LoVo (Colorectal Adenocarcinoma); assay: Cell viability analysis, colon cancer LoVo; assay type: cell-based, human; details: for viability at 10 µM: Homo sapiens, LoVo, 72 h
[16] = system: A549 (Lung Adenocarcinoma); assay: Cell viability analysis, lung cancer A549; assay type: cell-based, human; details: for viability at 10 µM: Homo sapiens, A549, 72 h
T24 = assay: Cell viability analysis, bladder cancer T24; assay type: cell-based, human
[17] = system: HeLa (Cervix Adenocarcinoma); assay: Cell viability analysis, cervical cancer HeLa; assay type: cell-based, human
[18] = system: Hep3B (hepatocellular carcinoma); assay: Cell viability analysis, hepatic cancer Hep3B; assay type: cell-based, human
[19] = system: MDA-MB-231 (Mammary Gland, Adenocarcinoma); assay: Cell viability analysis, breast cancer MDA-MB-231; assay type: cell-based, human

`CN(C)c1cc(NC(=O)CNC(C)(C)C)c(O)c2c1C[C@H]1C[C@H]3[C@H](N(C)C)C(O)=C(C(N)=O)C(=O)[C@@]3(O)C(O)=C1C2=O` [Tigecycline] showed a viability at 10 µM ([1]; read-out: The results of antibiotic drug inhibiting cancer cell lines (cell viability analysis), H1650, H1650, repeated experiment) of 66.9%, a viability at 10 µM ([1]; read-out: cell viability (survival rate), H1650, drug 10 μM, 72 hours, WST-1, OD450 nm) of 53.1% and a viability at 10 µM ([2]; Homo sapiens, 72 h, read-out: The results of antibiotic drug inhibiting cancer cell lines (cell viability analysis), SAS) of 66.2%. For the same molecule, the viability at 10 µM ([3]; Homo sapiens, 786-0, 72 h, read-out: The results of antibiotic drug inhibiting cancer cell lines (cell viability analysis), 786-O) was 100%, the viability at 10 µM (NIH: OVCAR-3; Homo sapiens, OVCAR-3, 72 h, read-out: The results of antibiotic drug inhibiting cancer cell lines (cell viability analysis), NIH-OVCAR-3) was 91.1% and the viability at 10 µM ([4]; read-out: The results of antibiotic drug inhibiting cancer cell lines (cell viability analysis), A375, A375, repeated experiment) was 83.2%. The viability at 10 µM ([4]; read-out: cell viability (survival rate), A375, drug 10 μM, 72 hours, WST-1, OD450 nm) was 52.2%, the viability at 10 µM ([5]; read-out: The results of antibiotic drug inhibiting cancer cell lines (cell viability analysis), HepG2, HepG2, repeated experiment) was 97.2% and the viability at 10 µM ([5]; read-out: cell viability (survival rate), HepG2, drug 10 μM, 72 hours, WST-1, OD450 nm) was 102%. The viability at 10 µM ([6]; read-out: The results of antibiotic drug inhibiting cancer cell lines (cell viability analysis), PC-3, PC-3, repeated experiment) was 112%, the viability at 10 µM ([6]; read-out: cell viability (survival rate), PC3, drug 10 μM, 72 hours, WST-1, OD450 nm) was 83% and the viability at 10 µM ([7]; Homo sapiens, C-33-A, 72 h, read-out: The results of antibiotic drug inhibiting cancer cell lines (cell viability analysis), C-33A) was 100%. It also gave a viability at 10 µM ([8]; TSGH-8301, repeated experiment, read-out: The results of antibiotic drug inhibiting cancer cell lines (cell viability analysis), TSGH-8301) of 113%, a viability at 10 µM ([8]; read-out: cell viability (survival rate), TSGH, drug 10 μM, 72 hours, WST-1, OD450 nm) of 98.5% and a viability at 10 µM ([9]; Homo sapiens, 72 h, read-out: The results of antibiotic drug inhibiting cancer cell lines (cell viability analysis), BCC) of 79.9%. It also gave a viability at 10 µM ([10]; read-out: The results of antibiotic drug inhibiting cancer cell lines (cell viability analysis), AGS, repeated experiment) of 90.6%, a viability at 10 µM ([10]; read-out: cell viability (survival rate), AGS, drug 10 μM, 72 hours, WST-1, OD450 nm) of 49.4% and a viability at 10 µM (TOV-21G; Homo sapiens, TOV21G, 72 h, read-out: The results of antibiotic drug inhibiting cancer cell lines (cell viability analysis), TOV-21G) of 67.1%. It also gave a viability at 10 µM (AsPC-1; Homo sapiens, ASPC1, 72 h, read-out: The results of antibiotic drug inhibiting cancer cell lines (cell viability analysis), AsPC-1) of 86.5%, a viability at 10 µM (U-2OS; Homo sapiens, U2OS, 72 h, read-out: The results of antibiotic drug inhibiting cancer cell lines (cell viability analysis), U2OS) of 84% and a viability at 10 µM ([11]; read-out: The results of antibiotic drug inhibiting cancer cell lines (cell viability analysis), MKN-45, MKN-45, repeated experiment) of 114%. The viability at 10 µM ([11]; read-out: cell viability (survival rate), MKN-45, drug 10 μM, 72 hours, WST-1, OD450 nm) was 89.2%, the viability at 10 µM [12] was 97.6% and the viability [13] was 89.7%. For the same molecule, the viability at 10 µM ([14]; read-out: The results of antibiotic drug inhibiting cancer cell lines (cell viability analysis), MCF-7, MCF-7, repeated experiment) was 79.1%, the viability at 10 µM ([14]; read-out: cell viability (survival rate), MCF7, drug 10 μM, 72 hours, WST-1, OD450 nm) was 71.1% and the viability at 10 µM (BxPC-3; Homo sapiens, BXPC-3, 72 h, read-out: The results of antibiotic drug inhibiting cancer cell lines (cell viability analysis), BxPC-3) was 75.6%. For the same molecule, the “inhibition effect on different cancer cell lines” value (cancer cell lines) was “significant inhibition effect”, the viability at 10 µM ([15]; read-out: The results of antibiotic drug inhibiting cancer cell lines (cell viability analysis), LoVo, repeated experiment) was 96% and the viability at 10 µM ([15]; read-out: cell viability (survival rate), LoVo, drug 10 μM, 72 hours, WST-1, OD450 nm) was 82.4%. The viability at 10 µM ([16]; read-out: The results of antibiotic drug inhibiting cancer cell lines (cell viability analysis), A549, A549, repeated experiment) was 91.5%, the viability at 10 µM ([16]; read-out: cell viability (survival rate), A549, drug 10 μM, 72 hours, WST-1, OD450 nm) was 55.9% and the viability at 10 µM (T24; Homo sapiens, T-24, 72 h, read-out: The results of antibiotic drug inhibiting cancer cell lines (cell viability analysis), T24) was 109%. The viability at 10 µM ([17]; Homo sapiens, HeLa, 72 h, read-out: The results of antibiotic drug inhibiting cancer cell lines (cell viability analysis), HeLa, repeated experiment) was 102%, the viability at 10 µM ([18]; Homo sapiens, Hep3B, 72 h, read-out: The results of antibiotic drug inhibiting cancer cell lines (cell viability analysis), Hep3B) was 106% and the viability at 10 µM ([19]; Homo sapiens, MDA-MB-231, 72 h, read-out: The results of antibiotic drug inhibiting cancer cell lines (cell viability analysis), MDA-MB231) was 93.4%.

With `Cc1cc(C2CCCCC2)n(O)c(=O)c1.NCCO` [Ciclopirox ethanolamine] the “The results of antibiotic drug inhibiting cancer cell lines (cell viability analysis), H1650” value [1] was 53.76, the “The results of antibiotic drug inhibiting cancer cell lines (cell viability analysis), SAS” value [2] was 31.98 and the “The results of antibiotic drug inhibiting cancer cell lines (cell viability analysis), 786-O” value [3] was 18.27. The “The results of antibiotic drug inhibiting cancer cell lines (cell viability analysis), NIH-OVCAR-3” value (NIH: OVCAR-3) was 66.99, the “The results of antibiotic drug inhibiting cancer cell lines (cell viability analysis), A375” value [4] was 21.76 and the “The results of antibiotic drug inhibiting cancer cell lines (cell viability analysis), HepG2” value [5] was 102.4. For the same molecule, the “The results of antibiotic drug inhibiting cancer cell lines (cell viability analysis), PC-3” value [6] was 54.81, the “The results of antibiotic drug inhibiting cancer cell lines (cell viability analysis), C-33A” value [7] was 42.12 and the “The results of antibiotic drug inhibiting cancer cell lines (cell viability analysis), TSGH-8301” value [8] was 43.63. The “The results of antibiotic drug inhibiting cancer cell lines (cell viability analysis), BCC” value [9] was 29.08, the “The results of antibiotic drug inhibiting cancer cell lines (cell viability analysis), AGS” value [10] was 36.59 and the “The results of antibiotic drug inhibiting cancer cell lines (cell viability analysis), TOV-21G” value (TOV-21G) was 28.95. The “The results of antibiotic drug inhibiting cancer cell lines (cell viability analysis), AsPC-1” value (AsPC-1) was 46.57, the “The results of antibiotic drug inhibiting cancer cell lines (cell viability analysis), U2OS” value (U-2OS) was 51.75 and the “The results of antibiotic drug inhibiting cancer cell lines (cell viability analysis), MKN-45” value [11] was 72.97. The viability [13] was 29.5%, the “The results of antibiotic drug inhibiting cancer cell lines (cell viability analysis), MCF-7” value [14] was 53.67 and the “The results of antibiotic drug inhibiting cancer cell lines (cell viability analysis), BxPC-3” value (BxPC-3) was 47.7. The “inhibition effect on different cancer cell lines” value (cancer cell lines) was “significant inhibition effect”, the “The results of antibiotic drug inhibiting cancer cell lines (cell viability analysis), LoVo” value [15] was 65.53 and the “The results of antibiotic drug inhibiting cancer cell lines (cell viability analysis), A549” value [16] was 23.67. The “The results of antibiotic drug inhibiting cancer cell lines (cell viability analysis), T24” value (T24) was 41.2, the “The results of antibiotic drug inhibiting cancer cell lines (cell viability analysis), HeLa” value [17] was 41.02 and the “The results of antibiotic drug inhibiting cancer cell lines (cell viability analysis), Hep3B” value [18] was 48.66. For the same molecule, the “The results of antibiotic drug inhibiting cancer cell lines (cell viability analysis), MDA-MB231” value [19] was 48.29.
